{"source": "patent US12571794B2", "about": "“Epigen AU/11: a natural matrix for restoring homeostasis in cancer cell-infiltrated tissue” (priority 2024, dated 2026)", "key": {"[1]": {"test_system": "bladder tumour organoid Bladder 41", "experiment": "Tumour organoid viability with chemotherapeutics, CellTiter-Glo 3D", "format": "cell-based, human", "conditions": "Bladder Cancer patient-derived tumour organoids; chemotherapy combined with EpigenAU/11", "procedure": "(§1) 39A bladder 38, 39B bladder 41, 39C breast 203, 39D Endometrium 12. […] Breast organoids (Breast 203): Treated sequentially with paclitaxel (P, 50 nM)+carboplatin (C, 100 nM) for 72 hours, followed by epirubicin (E, 1 μM)+cyclophosphamide (Cy 7 μM) for an additional 72 hours. Endometrial organoid (Endometrium 12): Treated with carboplatin (C, 100 nM), paclitaxel (P, 100 nM), or their combination for 72 hours. ATP content, measured by CellTiter-Glo® 3D, is expressed as a percentage of cell viability, with untreated controls set at 100%. Statistical analysis was performed using one-way ANOVA followed by Dunnett's test, with significant differences denoted by p<0.002 (**) and p<0.0001 (****). Data are presented as mean±SD."}, "FaDu xenografts [2]": {"test_system": "FaDu xenografts", "conditions": "for MITOSIS (amount of mitosis in 2.37 mm^2; 10x): H&E staining of excised tumours", "procedure": "Tumour growth curve of FaDu xenografts in athymic mice over 27 days of treatment. […] Tumour volume was measured every other day. Data are represented as mean±SEM; *p<0.05; **p<0.02. One-way ANOVA followed by Fisher's LSD test was used for statistical analysis.\nIn this investigation, an in vivo trial utilizing FaDu cells was performed to explore this interaction.\nAll treatments commenced when tumours reached a volume of 0.1 cm^3.\nThe response in mice was evaluated using criteria akin to RECIST 1.1 guidelines.\nFor this purpose, immunocompromised mice bearing xenografted FaDu head and neck squamous carcinoma cells were included in the study once tumours reached a volume of 100 mm^3."}, "FaDu xenografts [3]": {"test_system": "FaDu xenografts", "format": "in vivo, mice", "set-up": "key to Loss of Straightening reflex / Loss of Cleaning / Loss of Curiosity / Loss of Reactivity / Loss of Spontaneous activity: untreated animal value = 0, plus treated animal value", "source_text": "(§2) The risk (intended as side effects) was estimated through the observation of behavioural parameters (impacting the behaviour itself, the locomotor system, muscle strength and nervous reflexes) and through the potential weight loss of the animal.\nData obtained by animal testing, considered in the context of the risk, are behavioural parameters and body weight loss at the end of experimentation.\nThe behavioural parameters monitored are listed below: • 1. Loss of Spontaneous activity • 2. Loss of Cleaning • 3. Loss of Curiosity • 4. Loss of Reactivity • 5. Loss of Straightening reflex • 6. Loss of Physical strength • 7. Impairment of Palpebral opening • 8. Palpebral reflex • 9. Tremors • 10. Pallor • 11. Stereotypies • 12. Passivity\nThe values of the parameters 1-8 are normalized as: “Not treated animal value” (always equal to 0)+“Treated animal value”.\nThe values of the parameters 9-12 are normalized as: “Not treated animal value”-“Treated animal value”.\nThe potential weight loss of the treated animals was also assessed.” Data were processed using the formula: 1−[“Body weight of treated animals (day of observation: 27)/body weight of untreated animals (day of observation: 19)]\nData were calculated as “Reduction in the size of tumour mass” by the formula: 1−[“Tumour mass size collected from treated animals (day of observation: 27)/Tumour mass size collected from untreated animals (day of observation: 19)]"}, "[4]": {"test_system": "explanted biopsies from A431 graft", "experiment": "Ex vivo explanted biopsies, cell viability by flow cytometry (Annexin V)", "format": "cell-based, human cells grown in immunocompromised mice", "conditions": "72 hours ex vivo; EpigenAU/11 50 mg/ml (pH 5.6), cisplatin 150 μg/ml, HCl to pH 5.6", "quoted_text": "Analysis of cell viability in explanted biopsies from the FaDu (9A) and A431 (9B) cell lines was performed after 72 hours of ex vivo treatment. […] Cell viability was analysed using a flow cytometer with the Pacific Blue™ Annexin V/SYTOX™ AADvanced™ Apoptosis Kit, following the manufacturer's instructions. Viability is expressed as a percentage, with untreated controls set at 100%. […] Data are represented as mean±SD; *p<0.03;***p<0.0002.\nAnalysis of cell viability in explanted biopsies from the A431 cell lines was performed after 72 hours of ex vivo treatment. […] Cell viability was analysed using a flow cytometer with the Pacific Blue™ Annexin V/SYTOX™ AADvanced™ Apoptosis Kit, following the manufacturer's instructions. Viability is expressed as a percentage, with untreated controls set at 100%. […] Data are represented as mean±SD; **p<0.02.\nTo further substantiate these findings, an ex vivo test was conducted using explanted biopsies from the FaDu and A431 cell lines. These biopsies were generated by injecting the cells into immunocompromised mice, thereby creating a more intricate three-dimensional structure that closely mimics the tumour microenvironment. […] Following the 72-hour treatment period, cell viability was analysed using flow cytometry."}, "[5]": {"test_system": "non-cancerous spheroids (MSC, HuDe)", "experiment": "3D spheroids toxicity, Cell Titer-Glo 3D (ATP)", "format": "cell-based, human", "conditions": "72 hours; EpigenAU/11 0.22 mg/ml, CDDP 15 μg/ml", "quoted_text": "Additionally, two 3D spheroids from non-cancerous cell lines were included in the study: • MSC (BM-derived Mesenchymal Stromal Cells): Multipotent stromal cells derived from bone marrow. • HuDe (Human Dermal Fibroblasts): Non-cancerous dermal fibroblast cells."}, "[6]": {"test_system": "explanted biopsies from FaDu graft", "format": "cell-based, human cells grown in immunocompromised mice", "conditions": "72 hours ex vivo; EpigenAU/11 50 mg/ml (pH 5.6), cisplatin 150 μg/ml, HCl to pH 5.6", "quoted_text": "Analysis of cell viability in explanted biopsies from the FaDu (9A) and A431 (9B) cell lines was performed after 72 hours of ex vivo treatment. […] Cell viability was analysed using a flow cytometer with the Pacific Blue™ Annexin V/SYTOX™ AADvanced™ Apoptosis Kit, following the manufacturer's instructions. Viability is expressed as a percentage, with untreated controls set at 100%. One-way ANOVA analysis followed by Dunnett's test confirmed significant differences among the groups. Data are represented as mean±SD; *p<0.03;***p<0.0002.\n(§3) Analysis of cell viability in explanted biopsies from the FaDu cell lines was performed after 72 hours of ex vivo treatment. […] Cell viability was analysed using a flow cytometer with the Pacific Blue™ Annexin V/SYTOX™ AADvanced™ Apoptosis Kit, following the manufacturer's instructions. Viability is expressed as a percentage, with untreated controls set at 100%. […]\nas §3\nFollowing the 72-hour treatment period, cell viability was analysed using flow cytometry."}, "[7]": {"test_system": "biopsies derived from the FaDu graft", "experiment": "Genome-wide gene expression profiling, ex vivo", "format": "cell-based, human", "conditions": "6 hours; EpigenAU/11 50 mg/ml, cisplatin 150 μg/ml, alone and combined"}, "[8]": {"set-up": "species or system mice", "conditions": "mouse, in vivo", "procedure": "Furthermore, to better understand the potential systemic toxicity of the treatments, an Irwin test was conducted, evaluating a range of physiological and behavioural parameters, including general behaviour, CNS excitement, movement coordination, muscle tone, reflex responses, and autonomic signs.\nParameters assessed include general behaviour, central nervous system (CNS) excitement, movement coordination, muscle tone, reflex responses, and autonomic signs.\nas §2"}, "A431 xenografts": {"test_system": "A431 xenografts", "format": "in vivo, athymic mice", "conditions": "excised at end of 15-day treatment, six mice", "procedure": "Tumour growth curve of A431 xenografts in athymic mice over 15 days of treatment. […] Tumour volume was measured every other day. Data are represented as mean±SEM; **p<0.02; ****p<0.001.\nIn this trial, athymic mice were subcutaneously injected with 1×10^6 A431 cells into their flank to develop xenograft tumours."}, "[9]": {"test_system": "Head and Neck Cancer patient-derived tumour organoids", "experiment": "EpigenAU/11 combinations with chemotherapeutics on patient-derived tumour organoids (summary table)", "format": "cell-based", "conditions": "chemotherapy combined with EpigenAU/11"}, "[10]": {"test_system": "osteosarcoma spheroids (143B, SaOS-2, U-2 OS)", "experiment": "3D spheroids toxicity, Cell Titer-Glo 3D (ATP)", "format": "cell-based", "conditions": "72 hours; EpigenAU/11 0.22 mg/ml, CDDP 15 μg/ml", "procedure": "The Cell Titer-Glo® 3D Viability Assay was used to quantify ATP as a marker of cell viability. Results are expressed as the survival ratio (%) between treated cells and their corresponding untreated controls.\nIn addition to the findings above, several partners contributed to the development of more complex in vitro models, including 3D spheroids, which better mimic the three-dimensional structure of tumours and their microenvironment.\nThe viability of both control and treated cells was assessed 72 hours after the start of treatment by quantifying ATP levels using the Cell Titer-Glo® 3D Viability Assay following the manufacturer's instructions."}, "[11]": {"test_system": "FaDu, A431 and HuDe cells", "experiment": "Intracellular pH (pHrodo Green AM)", "format": "cell-based, human", "conditions": "EpigenAU/11 0.66 mg/ml or HCl, one hour", "source_text": "Cells were labelled with pHrodo™ Green AM Intracellular pH Indicator according to manufacturers' instructions. pH values were normalized with respect to cell number, measured by Nuclear Mask Red staining."}, "[12]": {"test_system": "endometrial tumour organoid Endometrium 12", "conditions": "72 hours; EpigenAU/11 0.66 mg/ml, carboplatin 100 nM, paclitaxel 100 nM", "procedure": "as §1"}}, "note": "Structures can show the parent of a compound that is named as a salt. Where two headings read alike, the source gives them in different places."}
{"smiles": "N.N.[Cl][Pt][Cl]", "note": "[Cisplatin]", "values": [{"measurement": "Cooperative Effect with EpigenAU/11", "setting": "[1]", "result": "YES"}, {"measurement": "tumour progression", "setting": "FaDu xenografts [2]; 27 days, cisplatin 2 mg/kg i.p. every two days", "result": "stabilization of the disease"}, {"measurement": "MITOSIS (amount of mitosis in 2.37 mm^2; 10x)", "setting": "FaDu xenografts [2]", "result": "14 (±8)"}, {"measurement": "MITOSIS (amount of mitosis in 2.37 mm^2; 10x)", "setting": "FaDu xenografts [2]; listed as cisplatin", "result": 14}, {"measurement": "Size of tumor masses (Mean)", "setting": "FaDu xenografts [2]; day of observation 27", "result": 0.50}, {"measurement": "MEAN tumour mass", "setting": "FaDu xenografts [2]; explanted after 27 days of treatment, five mice", "result": 454, "unit": "mg"}, {"measurement": "Body weight (Mean)", "setting": "FaDu xenografts [2]; mouse, in vivo", "result": 29.12}, {"measurement": "Weight loss", "setting": "FaDu xenografts [3]; 1−[body weight treated day 27/untreated day 19]", "result": 0.22}, {"measurement": "Reduction in the size of tumour mass", "setting": "FaDu xenografts [3]; 1−[tumour mass size treated day 27/untreated day 19]", "result": 0.64}, {"measurement": "IN VIVO BENEFIT SCORE", "setting": "FaDu xenografts [3]; mouse, in vivo", "result": 0.64}, {"measurement": "Impairment of Palpebral opening", "setting": "FaDu xenografts [3]; normalised risk parameter", "result": 2.00}, {"measurement": "Loss of Cleaning", "setting": "FaDu xenografts [3]; normalised risk parameter", "result": 1.50}, {"measurement": "Loss of Curiosity", "setting": "FaDu xenografts [3]; normalised risk parameter", "result": 1.60}, {"measurement": "Loss of Palpebral reflex", "setting": "FaDu xenografts [3]; normalised risk parameter", "result": 1.20}, {"measurement": "Loss of Physical strength", "setting": "FaDu xenografts [3]; normalised risk parameter", "result": 1.30}, {"measurement": "Loss of Reactivity", "setting": "FaDu xenografts [3]; normalised risk parameter", "result": 1.40}, {"measurement": "Loss of Spontaneous activity", "setting": "FaDu xenografts [3]; normalised risk parameter", "result": 1.80}, {"measurement": "Loss of Straightening reflex", "setting": "FaDu xenografts [3]; normalised risk parameter", "result": 1.40}, {"measurement": "Pallor", "setting": "FaDu xenografts [3]; normalised risk parameter", "result": 2.00}, {"measurement": "Passivity", "setting": "FaDu xenografts [3]; normalised risk parameter", "result": 1.10}, {"measurement": "Stereotypies", "setting": "FaDu xenografts [3]; normalised risk parameter", "result": 0.00}, {"measurement": "Tremors", "setting": "FaDu xenografts [3]; normalised risk parameter", "result": 0.80}, {"measurement": "IN VIVO RISK SCORE", "setting": "FaDu xenografts [3]; sum of risk parameters", "result": 16}, {"measurement": "cell death", "setting": "[4]", "result": "around 30%"}, {"measurement": "viability (ATP levels) of healthy spheroids", "setting": "[5]", "result": "indiscriminately killed both cancerous and healthy cells"}, {"measurement": "cell death", "setting": "[6]", "result": "around 25%"}, {"measurement": "modulation of cancer-related pathways (gene expression)", "setting": "[7]", "result": "comparable downregulatory effect across many of the same pathways"}, {"measurement": "reduction in overall biological functions", "setting": "[8]", "result": "30-40%"}, {"measurement": "MEAN tumour mass", "setting": "A431 xenografts", "result": 368, "unit": "mg"}, {"measurement": "Cooperative Effect with EpigenAU/11", "setting": "[9]", "result": "YES"}, {"measurement": "viability (ATP levels) of cancerous spheroids", "setting": "[10]", "result": "indiscriminately killed both cancerous and healthy cells"}]}
{"smiles": "Cl", "note": "[HCl, hydrochloric acid]", "values": [{"measurement": "cell death", "setting": "[4]", "result": "no significant signs of cell death"}, {"measurement": "cell death", "setting": "[6]", "result": "no significant signs of cell death"}, {"measurement": "intracellular pH", "setting": "[11]", "result": "no observable effects"}]}
{"smiles": "N.N.O=C([O-])C1(C(=O)[O-])CCC1.[Pt+2]", "note": "[carboplatin]", "values": [{"measurement": "viability (ATP, untreated = 100%)", "setting": "[12]", "result": 85.1, "unit": "%"}]}
